In patent US20050282755A1, “Compositions having antimicrobial activity and uses thereof” (priority 2004, published 2005):
≈ marks a conversion by molar mass, not a printed value.

Legend:
Settings in all cases: 3 log or greater reduction in bacterial growth over 16 hours
[1] = tested on: S. aureus (Rosenbach); assay: Broth microdilution assay for MIC (20% TSB, 50 mM Na2CO3, 1 mM MgCl2), Table 4A; assay type: cell-based, Staphylococcus aureus
Procedure: (§1) S. dublin (Lane), S. aureus (Rosenbach), P. acnes, ATCC 6919, E. coli K12 TOP10, and E. coli K12 55099 (protease neg.) bacterial strains were tested in the microbial inhibition assays described hereafter. The S. dublin (Lane), and S. aureus (Rosenbach) strains are available from ATCC (Staphylococcus aureus subsp. aureus Rosenbach (Number: 13150) and Salmonella choleraesuis serotype dublin (Number: 39184)). The strain of P. acnes was purchased from ATCC (strain #6919) (Manassas, Va.). The E. coli K12 strains TOP 10 and 55099 were purchased from Invitrogen (Carlsbad, Calif.) and ATCC respectively. HeLa cells were purchased from ATCC (CCL2). Tryptic soy broth (TSB), Brucella broth, reinforced Clostridial broth and agar were purchased from Becton & Dickinson (distributed by VWR, West Chester, Pa.). All plastic consumables were purchased from VWR (West Chester, Pa.). […]
(§2) The minimum inhibitory concentration (MIC) of peptide compositions for S. aureus, S. dublin and E. coli was determined in a broth microdilution assay. […] The MIC for each peptide for each microorganism was determined by three methods. The growth of bacteria was directly determined by measuring the absorption at 600 nm using a Versamax microplate reader (Molecular Devices). […] After incubation for 16 hours at 37° C. bacterial growth was evaluated and documented (Alpha Innotech gel documentation system).

[2] = tested on: S. dublin (Lane); assay: Broth microdilution assay for MIC, Table 4A; assay type: cell-based, Salmonella dublin
Procedure: as §1, §2

[3] = tested on: E. coli K12 55099 (protease neg.)

## CSCC[C@@H](NC(=O)[C@@H](Cc1ccccc1)NC(=O)[C@@H](CC(N)=O)NC(=O)[C@@H](CCCNC(=N)N)NC(=O)[C@@H](CO)NC(=O)[C@@H](Cc1c[nH]c2ccccc12)NC(=O)[C@@H](CC(=O)O)NC(=O)[C@@H](CCCNC(=N)N)NC(=O)[C@@H](Cc1c[nH]c2ccccc12)NC(=O)[C@@H](CCCNC(=N)N)NC(=O)[C@@H](CO)NC(=O)[C@@H](CCCNC(=N)N)NC(=O)CNC(=O)[C@H](NC(=O)[C@@H](CCCNC(=N)N)NC(=O)[C@@H](CO)NC(=O)[C@H](NC(=O)[C@@H](CCCNC(=N)N)NC(=O)[C@H](NC(C)=O)[C@H](C)O)C(C)C)[C@H](C)O)C(=O)N[C@H](CCCNC(=N)N)C(=O)N[C@H](C)C(=O)N[C@H](C)C(N)=O [Peptide 30, Ac-trvsrtgrsrwrdwsrnfmraa-NH2]
[1]
  Minimum inhibitory concentration (MIC) S. aureus: 8 µM (≈ 22.4 µg/mL)
[2]
  Minimum inhibitory concentration (MIC) S. dublin: 4 µM (≈ 11.2 µg/mL)
[3]
  Minimum inhibitory concentration (MIC) E. coli 55099: 2 µM (≈ 5.59 µg/mL)
